Laboratory results: the NIST ThermoML archive (doi:10.1021/acs.jced.6b00210)

Experiment: xn = mol fraction of the nth substance listed
Conditions: 100 kPa, Liquid; for viscosity: Concentric cylinders viscometry; for mass density: Vibrating tube method

Nc1ccccc1 [aniline] + CC(C)O
Conditions	mass density [kg/m3]	viscosity [mPa·s]
293.15 K, x1 = 0.0813	809.7	2.291
293.15 K, x1 = 0.1599	832	2.176
293.15 K, x1 = 0.2396	853.7	2.12
293.15 K, x1 = 0.349	882	2.1
293.15 K, x1 = 0.4402	904.3	2.17
293.15 K, x1 = 0.5598	932.1	2.33
293.15 K, x1 = 0.6501	952	2.54
293.15 K, x1 = 0.74	971	2.81
293.15 K, x1 = 0.8499	993.2	3.31
293.15 K, x1 = 0.9402	1010.6	3.93
293.15 K, x1 = 1	1021.7	4.37
298.15 K, x1 = 0.0813	805.3	1.963
298.15 K, x1 = 0.1599	827.5	1.86
298.15 K, x1 = 0.2396	849.2	1.8
298.15 K, x1 = 0.349	877.4	1.78
298.15 K, x1 = 0.4402	899.7	1.84
298.15 K, x1 = 0.5598	927.6	1.98
298.15 K, x1 = 0.6501	947.5	2.16
298.15 K, x1 = 0.74	966.5	2.39
298.15 K, x1 = 0.8499	988.8	2.84
298.15 K, x1 = 0.9402	1006.2	3.39
298.15 K, x1 = 1	1017.4	3.8
303.15 K, x1 = 0.0813	800.8	1.651
303.15 K, x1 = 0.1599	823	1.56
303.15 K, x1 = 0.2396	844.6	1.5
303.15 K, x1 = 0.349	872.8	1.47
303.15 K, x1 = 0.4402	895.1	1.48
303.15 K, x1 = 0.5598	923	1.58
303.15 K, x1 = 0.6501	942.9	1.7
303.15 K, x1 = 0.74	961.9	1.9
303.15 K, x1 = 0.8499	984.2	2.27
303.15 K, x1 = 0.9402	1001.8	2.73
303.15 K, x1 = 1	1013.2	3.13
308.15 K, x1 = 0.0813	796.4	1.454
308.15 K, x1 = 0.1599	818.5	1.39
308.15 K, x1 = 0.2396	840	1.34
308.15 K, x1 = 0.349	868.2	1.3
308.15 K, x1 = 0.4402	890.6	1.3
308.15 K, x1 = 0.5598	918.5	1.36
308.15 K, x1 = 0.6501	938.5	1.48
308.15 K, x1 = 0.74	957.6	1.67
308.15 K, x1 = 0.8499	980	1.99
308.15 K, x1 = 0.9402	997.7	2.39
308.15 K, x1 = 1	1009	2.75
313.15 K, x1 = 0.0813	791.9	1.29
313.15 K, x1 = 0.1599	814	1.23
313.15 K, x1 = 0.2396	835.5	1.18
313.15 K, x1 = 0.349	863.6	1.15
313.15 K, x1 = 0.4402	885.9	1.14
313.15 K, x1 = 0.5598	913.8	1.2
313.15 K, x1 = 0.6501	933.9	1.3
313.15 K, x1 = 0.74	953.1	1.48
313.15 K, x1 = 0.8499	975.6	1.79
313.15 K, x1 = 0.9402	993.3	2.13
313.15 K, x1 = 1	1004.7	2.43
318.15 K, x1 = 0.0813	787.2	1.125
318.15 K, x1 = 0.1599	809.2	1.076
318.15 K, x1 = 0.2396	830.7	1.043
318.15 K, x1 = 0.349	858.9	1.02
318.15 K, x1 = 0.4402	881.2	1.03
318.15 K, x1 = 0.5598	909.2	1.08
318.15 K, x1 = 0.6501	929.2	1.166
318.15 K, x1 = 0.74	948.5	1.34
318.15 K, x1 = 0.8499	971.1	1.6
318.15 K, x1 = 0.9402	988.9	1.9
318.15 K, x1 = 1	1000.4	2.14
323.15 K, x1 = 0.0813	782.4	0.97
323.15 K, x1 = 0.1599	804.3	0.91
323.15 K, x1 = 0.2396	825.7	0.88
323.15 K, x1 = 0.349	853.8	0.85
323.15 K, x1 = 0.4402	876.2	0.86
323.15 K, x1 = 0.5598	904.1	0.91
323.15 K, x1 = 0.6501	924.2	1.01
323.15 K, x1 = 0.74	943.4	1.18
323.15 K, x1 = 0.8499	966.1	1.45
323.15 K, x1 = 0.9402	984	1.74
323.15 K, x1 = 1	995.5	1.96
